# From publication PMC10313808, “Lipoxygenase inhibitory synthetic derivatives of methyl gallate regulate gene expressions of COX-2 and cytokines to reduce animal model arthritis” (Scientific Reports, 2023)
# Marks after values point to notes of the source that are not given here.
# How the values were obtained:
# Type in all cases: in vivo, Sprague–Dawley (SD) rats
# [1] = tested on: FCA-induced arthritis; assay: FCA-induced arthritis: haematological parameters; settings: FCA rats
# Procedure: (§1) Chronic inflammation induced by Freund's Complete Adjuvant contains a suspension of heat-killed Mycobacterium tuberculosis in the vehicle (Chondrex, Labex Corporation). 100 μL of FCA (10 mg/mL) was injected intradermally to the left-hand paw of SD rats[42]. […] Induction of inflammation became chronic by 9–12 days and then rats were divided into 7 groups having 6 rats in each group. Everything possible was done to minimize the suffering of experimental animals. Minimum number of rats only were drafted to generate reliable data. 42 rats were randomly allocated into seven groups (6 × 7).
# (§2) Group I (n = 6) served as normal rats that received an equal volume of vehicle control. Group II (n = 6) was arthritic model control treated with vehicle only. Group III (n = 6) was arthritic control which received the diclofenac (10 mg.kg^–1). Groups IV (n = 6), V (n = 6), VI (n = 6) and VII (n = 6) were treated with a low and high dose of methyl gallate (20 mg.kg^–1, 40 mg.kg^–1) and MGSD 1 (1 mg.kg^–1, 10 mg.kg^–1). The drugs were orally administered through oral gavage daily in PBS vehicle for 28 days.
# Blood was drawn from jugular vein[43] and collected in heparinized tubes and used for further analysis. By using Horiba 5-part hematology analyzer the blood parameters like RBC, WBC, neutrophil and hemoglobin were analyzed. Serum parameters were analyzed using Stat Fax autoanalyzer. Serum glutamic pyruvic transaminase (SGPT), serum glutamic oxaloacetic transaminase (SGOT) and alkaline phosphatase (ALP) were determined using standard diagnostic kits (Proton, Accurex).
# [2] = tested on: ankle joints, liver, spleen, and thymus; assay: FCA-induced arthritis: histological analysis; settings: FCA rats; for Histology of liver / Histology of spleen: dose not stated; for Histology of thymus: methyl gallate high dose
# Procedure: The animals used for the FCA induced arthritis were euthanized at the end of the experiment and the ankle joints were separated from the hind paw and fixed in 10% buffered formalin. Similarly, liver, spleen, and thymus were also dissected carefully and immersed in fixative, and after 24 h each specimen were decalcified in 5% nitric acid, followed by embedding in paraffin wax and 4 µm thickness sections were prepared. These prepared sections were then mounted and stained with hematoxylin and[…] under brightfield compound binocular research microscope at 100X and 400X magnification and inflammation was graded.
# [3] = FCA-induced arthritis: body weight measurement; settings: FCA rats
# Procedure: as §1, §2
# The bodyweight of the animals was measured every day after the commencement of the experiment till the end (28th day). The weight change was calculated using the formula: Weightchange%=Wt-Wo/[…], where Wt is the weight of the animal at time t
# Wo is the weight of the animal on the initial day.
# [4] = tested on: COX-2; assay: RT-PCR gene expression in hind paw tissue, COX-2; settings: normalized to GAPDH, vs arthritic control
# Procedure: This study aimed to gain insight into the mechanism by which methyl gallate and its derivative influence the chronic inflammatory condition in the rat model. In the present study, the inflammatory pathway genes were identified, and their relative expression was quantified (COX-2 and TNF α). RNA was isolated from the hind paw tissue of rats and its concentration was analyzed through Qubit fluorometer. RNA was isolated by Trizol method and agarose gel electrophoresis performed. After the isolation protocol, complementary DNA was synthesized and followed the quantitative PCR with standard conditions. Primers of the targets were designed in Primer3Plus and primer validation was carried out. PCR annealing temperatures were standardized to amplify the specific genes. All the primer pairs were highly specific and resolved into single bands corresponding to amplification products of expected size on 2% agarose gel electrophoresis. Primer specificity was further confirmed by a single distinct peak on the melt curve. The specificity of primer pairs ensures the sequence quality of respective gene templates.
# The relative expression of inflammatory genes was identified through quantitative RT-PCR. […] The concentration of RNA isolated was measured in the Qubit fluorometer with the RNA HS assay kit. cDNA was synthesized by reverse transcription using total RNA (2 μg) as a template. […]
# [5] = tested on: FCA-induced arthritis; assay: FCA-induced arthritis: hind paw volume; settings: for Percentage of inhibition (paw oedema) / Paw volume (mL) (mean ± SEM) 9th day / Paw volume (mL) (mean ± SEM) 18th day / Paw volume (mL) (mean ± SEM) 28th day / Paw volume (mL) (mean ± SEM) Initial day: FCA rats; for amount required relative to diclofenac for the same level of effect: in vivo FCA arthritis studies
# Procedure: as §1, §2
# By a plethysmometer the rat hind paw volume was measured from the initial day to final day (28th day) with successive intervals of 9 days, before and after FCA injection. The inhibition was calculated by the formula given below. Percentageinhibition=1-Meanchangesinpawvolumeoftreatedrat/Meanchangesinpawvolumeofuntreatedrat×100.
compound,measurement,setting,value
"O=C(O)COc1cc(C(=O)O)cc(OCC(=O)O)c1OCC(=O)O [MGSD 1, 2,2′,2″-((5-carboxybenzene-1,2,3-triyl)tris(oxy)) tri acetic acid]",Hb,[1]; 1 mg.kg^−1 oral,14.8 ± 0.42 g/dL
same,Lymphocyte,[1]; 1 mg.kg^−1 oral,75.8 ± 0.21%
same,Neutro phil,[1]; 1 mg.kg^−1 oral,11.6 ± 0.76%
same,RBC,[1]; 1 mg.kg^−1 oral,6.93 ± 0.18^# 10^6/mm^3
same,WBC,[1]; 1 mg.kg^−1 oral,9.3 ± 0.48^# 10^3/mm^3
same,Hb,[1]; 10 mg.kg^−1 oral,14.2 ± 0.26 g/dL
same,Lymphocyte,[1]; 10 mg.kg^−1 oral,75.9 ± 3.44%
same,Neutro phil,[1]; 10 mg.kg^−1 oral,13.4 ± 0.23%
same,RBC,[1]; 10 mg.kg^−1 oral,7.075 ± 0.37^# 10^6/mm^3
same,WBC,[1]; 10 mg.kg^−1 oral,8.45 ± 0.98* 10^3/mm^3
same,Histology of ankle joints,[2]; 10 mg.kg^-1,reduced oedema formation and neutrophil infiltration was found very low
same,Histology of liver,[2],central sinusoid visible and hepatic array of cells normal
same,Histology of spleen,[2],more efficient in controlling the inflammatory response than methyl gallate and diclofenac
same,Histology of thymus,[2],more effective than the parent compound in reverting inflammation-based T-Cell proliferation
same,Percentage of body weight (Mean ± SEM) 9th day,[3]; 1 mg.kg^−1 oral,13.40 ± 0.26 %
same,Percentage of body weight (Mean ± SEM) 18th day,[3]; 1 mg.kg^−1 oral,25.99 ± 51 %
same,Percentage of body weight (Mean ± SEM) 28th day,[3]; 1 mg.kg^−1 oral,40.15 ± 0.00 %
same,Percentage of body weight (Mean ± SEM) 9th day,[3]; 10 mg.kg^−1 oral,14.47 ± 1.13 %
same,Percentage of body weight (Mean ± SEM) 18th day,[3]; 10 mg.kg^−1 oral,30.20 ± 1.57 %
same,Percentage of body weight (Mean ± SEM) 28th day,[3]; 10 mg.kg^−1 oral,38.44 ± 1.81 %
same,COX-2 gene expression,[4],significant down regulation of COX-2
same,Percentage of inhibition (paw oedema),[5]; 1 mg.kg^−1 oral,68%
same,Paw volume (mL) (mean ± SEM) 9th day,[5]; 1 mg.kg^−1 oral,0.97 ± 0.16 mL
same,Paw volume (mL) (mean ± SEM) 18th day,[5]; 1 mg.kg^−1 oral,0.68 ± 0.22 mL
same,Paw volume (mL) (mean ± SEM) 28th day,[5]; 1 mg.kg^−1 oral,0.59 ± 0.08 mL
same,Paw volume (mL) (mean ± SEM) Initial day,[5]; 1 mg.kg^−1 oral,0.50 ± 05 mL
same,Percentage of inhibition (paw oedema),[5]; 10 mg.kg^−1 oral,70%
same,Paw volume (mL) (mean ± SEM) 9th day,[5]; 10 mg.kg^−1 oral,1.05 ± 0.16 mL
same,Paw volume (mL) (mean ± SEM) 18th day,[5]; 10 mg.kg^−1 oral,0.69 ± 0.22 mL
same,Paw volume (mL) (mean ± SEM) 28th day,[5]; 10 mg.kg^−1 oral,0.56 ± 0.08 mL
same,Paw volume (mL) (mean ± SEM) Initial day,[5]; 10 mg.kg^−1 oral,0.50 ± 0.05 mL
same,amount required relative to diclofenac for the same level of effect,[5],approximately 1/12
COC(=O)c1cc(O)c(O)c(O)c1 [Methyl gallate],Hb,[1]; 20 mg.kg^−1 oral,14.2 ± 0.65 g/dL
same,Lymphocyte,[1]; 20 mg.kg^−1 oral,79 ± 0.79%
same,Neutro phil,[1]; 20 mg.kg^−1 oral,11.7 ± 0.25%
same,RBC,[1]; 20 mg.kg^−1 oral,7.47 ± 0.32^# 10^6/mm^3
same,WBC,[1]; 20 mg.kg^−1 oral,8.3 ± 0.6 10^3/mm^3
same,Hb,[1]; 40 mg.kg^−1 oral,14.4 ± 0.74 g/dL
same,Lymphocyte,[1]; 40 mg.kg^−1 oral,78.6 ± 1.85%
same,Neutro phil,[1]; 40 mg.kg^−1 oral,12.8 ± 0.4%
same,RBC,[1]; 40 mg.kg^−1 oral,7.87 ± 0.34^# 10^6/mm^3
same,WBC,[1]; 40 mg.kg^−1 oral,11.25 ± 0.62^# 10^3/mm^3
same,Histology of ankle joints,[2]; 40 mg.kg^-1,"synovial space with neutrophil infiltration, although much less than that of arthritic control"
same,Histology of liver,[2],hepatocyte arrays and central sinusoid area were seen to regain normalcy and a few necrotic cells were still visible
same,Histology of spleen,[2],lesser degree of spleen reversion
same,Histology of thymus,[2],effective in controlling inflammation-based T-Cell proliferation
same,Percentage of body weight (Mean ± SEM) 9th day,[3]; 20 mg.kg^−1 oral,9.43 ± 0.84%
same,Percentage of body weight (Mean ± SEM) 18th day,[3]; 20 mg.kg^−1 oral,23.61 ± 0.65%
same,Percentage of body weight (Mean ± SEM) 28th day,[3]; 20 mg.kg^−1 oral,34.17 ± 0.23 %
same,Percentage of body weight (Mean ± SEM) 9th day,[3]; 40 mg.kg^−1 oral,10.34 ± 0.52%
same,Percentage of body weight (Mean ± SEM) 18th day,[3]; 40 mg.kg^−1 oral,22.42 ± 0.28%
same,Percentage of body weight (Mean ± SEM) 28th day,[3]; 40 mg.kg^−1 oral,30.99 ± 0.23 %
same,COX-2 gene expression,[4],significant down regulation of COX-2
same,Percentage of inhibition (paw oedema),[5]; 20 mg.kg^−1 oral,45%
same,Paw volume (mL) (mean ± SEM) 9th day,[5]; 20 mg.kg^−1 oral,1.32 ± 0.16 mL
same,Paw volume (mL) (mean ± SEM) 18th day,[5]; 20 mg.kg^−1 oral,1.24 ± 0.22 mL
same,Paw volume (mL) (mean ± SEM) 28th day,[5]; 20 mg.kg^−1 oral,1.18 ± 0.08 mL
same,Paw volume (mL) (mean ± SEM) Initial day,[5]; 20 mg.kg^−1 oral,0.56 ± 0.05 mL
same,Percentage of inhibition (paw oedema),[5]; 40 mg.kg^−1 oral,37%
same,Paw volume (mL) (mean ± SEM) 9th day,[5]; 40 mg.kg^−1 oral,1.66 ± 0.18 mL
same,Paw volume (mL) (mean ± SEM) 18th day,[5]; 40 mg.kg^−1 oral,1.56 ± 0.24 mL
same,Paw volume (mL) (mean ± SEM) 28th day,[5]; 40 mg.kg^−1 oral,1.4 ± 0.09 mL
same,Paw volume (mL) (mean ± SEM) Initial day,[5]; 40 mg.kg^−1 oral,0.50 ± 0.05 mL
same,Percentage of inhibition (paw oedema),"[5]; 40 mg.kg^−1 oral, listed as methyl gallate",35–45%
same,amount required relative to diclofenac for the same level of effect,[5],approximately five times of diclofenac
